Entries after “also recorded” stand apart in the source; their conditions may differ.

Holding throughout (format): cell-based, human
One data set relates to IL6. As to the kind of experiment: IL6 mRNA expression by q-PCR. The settings on record: U87MGsiFAT1 vs siControl. As to the method:
Cell Culture and siRNA Transfection: The human glioma cell lines U87MG, U373, A172, T98G, GOS3 and SW1088 were obtained from ATCC; Rockville, Md., cultured in DMEM (Sigma-Aldrich, Switzerland) supplemented with 10% (v/v) FCS (Sigma-Aldrich), 3.7 g/l sodium bicarbonate (Sigma-Aldrich), Ciprofloxacin 10 μg/ml and 5% CO2 at 37° C. For transfection, 2×10^5 cells were seeded per 25 cm^2 flask. After 24 hrs, cells were transfected with FAT1 siRNA and universal medium GC control siRNA (Invitrogen) according to the manufacturer's protocol with a final concentration of 20 nM of siRNA using LIPOFECTAMINE 2000 (Invitrogen) and Opti-Mem media (Invitrogen). After 4 hrs of siRNA transfection, the media was supplemented with DMEM containing 2×FCS. […] Photomicrographs of the cells were taken using an inverted phase contrast microscope (Nikon TMS, Phase contrast microscope, Japan). For simultaneous knockdown of FAT1 and PDCD4, siRNA from Dharmacon were used. Transfection was performed as earlier with 50 nM of FAT1 siRNA along with 50 nM of PDCD4 siRNA or 50 nM of control siRNA.
cDNA Synthesis and Quantitative PCR: Total RNA was isolated from cells at appropriate time point (vide supra) using TRIzol reagent (Invitrogen), quantified using a Nanodrop ND-1000 spectrophotometer.

For data set [1], the system named is U87MG cells. As to the kind of experiment: In vitro Scratch Assay of cell migration. As to the method:
FIGS. 14A to 14D: Effect of NS-398 and FAT1 knockdown simultaneously on Cell Migration by In-vitro Scratch Assay. The in vitro Scratch Assay was performed at 72 hours after culturing cells as follows: At Day 0, 5,000 U87MG cells are plated per well of a 96 well plate. […] (C) Assay of cell migration by the Modified Boyden Chamber Assay under conditions of normoxia and hypoxia. (D) Quantitation of data from (C).
The Scratch Assay is performed at 72 hours after treatment. A scratch is made on the culture surface using a sterile 10 μl tip and cells were allowed to grow. Images were captured after every 3 hrs to monitor the closure of the wound in the culture surface for next 24 hrs.

For a further data set, the system named is ECM protease activity. As to the kind of experiment: Gelatin zymography. The note with it: conditioned media of U87MG cells, 72 hrs, vs siControl. As to the method: Gelatin Zymography: U87MG cells (2.5×10^5 cells/flask) were plated into 25 cm^2 flask. Transfection was performed on day 1 and after 72 hrs, the conditioned medium was collected, clarified by centrifugation, concentrated by Centricon YM-30 (10:1 concentration; Millipore, Billerica, Mass., USA), and separated in non-reducing polyacrylamide gels containing 0.1% (wt/vol) gelatin. The gel was incubated with 1× Zymogram renaturing buffer for 30 min at room temperature, 1× Zymogram developing buffer for 30 min at room temperature, and 1× Zymogram developing buffer at 37° C. for overnight. The gel was then stained for protein with 0.25% (w/v) Coomassie Blue R-250 and then destained with Coomassie R-250 destaining solution (Methanol:Acetic acid:Water (50:10:40). Proteolysis was detected as a white zone in a dark field.

A further data set deals with phospho-c-jun. As to the kind of experiment: Western blot phospho-c-jun (Ser63). The note with it: U87MGsiFAT1 vs siControl. As to the method:
Western Blotting Analyses: Cells were lysed in triple detergent buffer containing protease and phosphatase inhibitors (Sigma Aldrich), lysates were quantified by BCA kit (Pierce, Thermo Fisher Scientific, Rockford, Ill. USA) and electrophoresed in 10% SDS-PAGE and electroblotted on nitrocellulose membrane (Millipore, Billerica, Mass., USA). Membrane was blocked with 5% bovine serum albumin (BSA) in 1×TBS at 4° C. for overnight. Primary and secondary antibody was diluted in 5% BSA and 0.1% tween-20 in 1×TBS. Blot was incubated in primary antibody overnight at 4° C. followed by secondary antibody incubation for 2 hrs at room temperature. Blot was developed by BCIP-NBT (Promega, Madison, Wis., USA) and captured using Alpha Imager EP software.
(In general: In western blotting, separated proteins are transferred to a membrane and probed.)

In a further data set the test system is A172 cells. As to the kind of experiment: Invasion assay, matrigel. The settings on record: A172siFAT1 vs siControl, P<0.01. As to the method: (§1) Migration and Invasion Assays: The modified Boyden chamber/matrigel assay was performed according to the manufacturer's directions (BD Biosciences, Bedford, Mass.). For in vitro migration assays, chambers with control inserts that lacked the matrigel coating were used. Transfections were carried out in U87MG and A172 cells and 48 hrs later 3×10^4 U87MG cells/well and 7×10^4 A172 cells/well were resuspended in serum-free DMEM and seeded in triplicate in matrigel-coated (1 mg/ml; BD Biosciences) and uncoated control inserts (8-μm pore-size, BD Bioscience, Bedford, Mass.). The remaining protocol was done as previously described.

Data set [2] concerns U87MG cells. As to the kind of experiment: Invasion assay, matrigel. The note with it: U87MGsiFAT1 vs siControl, P<0.01. As to the method: as §1

For “siFAT1: FAT1 specific siRNA (Invitrogen), FAT Stealth RNAi siRNA-I (HSS103567), used for further experiments (sense CCCAACACACCUGUGGUCAUGGUAA; antisense UUACCAUGACCACAGGUGUGUUGGG; Stealth modification, chemistry not fully specified; listed as Homo sapiens)”, the “reduction in IL6 mRNA expression” value in the data set on IL6 was about 10 fold. The “inhibition of cell migration” value in the data set on U87MG cells [1] (Scratch Assay at 72 hours after treatment) is listed as “about 50%”. For the same substance, the “migration ability of cells” value with U87MG cells [1] (scratch and modified Boyden chamber assays, normoxic or hypoxic conditions (FIG. 14)) is on record as “reduced”. In the data set on ECM protease activity, the ECM protease activity result is recorded as “decreased; also recorded: reduced protease activity”. Besides, the “c-jun phosphorylation (p-c-jun level)” value in the data set on phospho-c-jun is recorded as “significantly decreased; also recorded: significant reduction”. Besides, the reduction in invasion is over 1.5 fold in the data set with A172 cells and over 2 fold with U87MG cells [2].

(Values after patent US9556437B2, “FAT1 gene in cancer and inflammation” (DEPARTMENT OF BIOTECHNOLOGY (DBT), priority 2012, dated 2017).)
